Assay results from the NIST ThermoML archive (doi:10.1016/j.jct.2008.07.019).
“And” between values parts separate entries of the source, which are not always exact repeats. Equal entries are not always repeated. Numbers after ± are expanded uncertainties.

Assay: cn = amount concentration of the nth substance listed, in mol/dm3
Conditions: 101 kPa, Liquid, c1 = 2

SMILES | viscosity (298.15 K) | viscosity (303.15 K) | viscosity (308.15 K) | viscosity (313.15 K) | viscosity (318.15 K) | viscosity (323.15 K)
O=[N+]([O-])[O-].[K+] [potassium nitrate] + O | 0.9118 ± 0.023 mPa·s | 0.8404 ± 0.021 mPa·s | 0.7619 ± 0.02 mPa·s | 0.6989 ± 0.018 mPa·s | 0.64 ± 0.017 mPa·s | 0.5929 ± 0.016 mPa·s and 0.5829 ± 0.016 mPa·s
[Cl-].[K+] [potassium chloride] + O | 0.887 ± 0.022 mPa·s | 0.8552 ± 0.022 mPa·s | 0.7658 ± 0.02 mPa·s | 0.6995 ± 0.018 mPa·s | 0.6492 ± 0.017 mPa·s | 0.6037 ± 0.016 mPa·s
